{"source": "patent EP4635969A1", "about": "“NOVEL GLUCOCORTICOID, METHOD FOR PREPARING SAME, AND USE THEREOF” (Tianjin Pharmaceutical Biotechnology Co., Ltd., priority 2022, dated 2024)"}
{"molecular_target": "T1, glucocorticoid receptor (GR) (Homo sapiens, UniProt P04150)", "T1 sequence (P04150 521-777)": "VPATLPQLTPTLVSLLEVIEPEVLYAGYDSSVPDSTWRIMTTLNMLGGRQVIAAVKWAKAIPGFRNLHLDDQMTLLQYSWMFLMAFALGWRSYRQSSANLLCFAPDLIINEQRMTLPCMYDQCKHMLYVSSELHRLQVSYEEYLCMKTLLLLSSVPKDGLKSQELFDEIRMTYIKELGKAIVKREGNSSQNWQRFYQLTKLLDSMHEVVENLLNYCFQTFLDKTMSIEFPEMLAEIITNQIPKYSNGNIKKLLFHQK", "assay": "Assay for agonist activity on glucocorticoid receptor (luciferase reporter, HEK293 cells transfected with pBIND-GR plasmid)", "format": "cell-based", "settings": "HEK293 cells transfected with pBIND-GR, luciferase signal; read-out: GR agonist EC50", "experimental": "Pharmacological Example 1: Assay for Agonist Activity on Glucocorticoid Receptor (GR)\nThe test compounds were subjected to a 4-fold serial dilution starting from an initial concentration of 10 µ M, generating a 10-point concentration gradient with duplicate wells for each concentration. The blank control consisted of 0.1 % DMSO.\nThe HEK293 stable cell line […] transfected with glucocorticoid receptor (GR) (ICE Bioscience, Lot No. TYP-20220519) was cultured in Dulbecco's Modified Eagle Medium (DMEM) supplemented with 10% fetal bovine serum (FBS) and 200 µ g/ml Hygromycin B in a cell incubator containing 5% CO2 at 37 °C. The spent medium was aspirated and the cells were washed once with phosphate-buffered saline (PBS). Then, 1 mL of TrypLE™ Express solution was added, and the cells were incubated at 37 °C for approximately 2 min. When the cells detached from the bottom of the cell culture dish, approximately 5 mL of pre-warmed complete medium at 37 °C was added. The cell suspension was gently pipetted with a pipette to dissociate clumped cells. The cell suspension was transferred to a sterile centrifuge tube and centrifuged at 1000 rpm for 5 min to pellet the cells for experiments or subculture.\nHEK293 cells were digested and seeded into 6-cm culture dishes. The pBIND-GR plasmid was transfected into the HEK293 cells using a transfection reagent, resulting in HEK293 cells successfully transfected with the pBIND-GR plasmid. The cells were resuspended in phenol red-free DMEM medium containing 5% charcoal-stripped serum, counted, and then seeded into 96-well plates. The test compounds were added, and the plates were then incubated in an incubator. The luminescence signal values were measured using a multimode microplate reader following the instructions of the luciferase assay kit. The EC50 values of each test compound were calculated using the nonlinear fitting formula with GraphPad Prism 8.0 software.", "units": {"EC50": "nM"}}
{"smiles": "C[C@]12C=CC(=O)C=C1CC[C@H]1[C@@H]3C[C@H]4OC(c5ccc(CSC6CCOC6=O)cn5)O[C@@]4(C(=O)CO)[C@@]3(C)C[C@H](O)[C@@]12F", "note": "(stereo partly drawn) [Compound 50, (6aS,6bR,7S,8aS,8bS,11aR,12aS,12bS)-6b-Fluoro-7-hydroxy-8b-(2-hydroxyacetyl)-6a,8a-dimethyl-10-(5-(((2-oxotetrahydrofuran-3-yl)thio)methyl)pyridin-2-yl)-1,2,6a,6b,7,8,8a,8b,11a,12,12a,12 b-dodecahydro-4H-naphtho[2',1':4,5]indeno[1,2-d][1,3]dioxol-4-one]", "EC50": 0.98}
{"smiles": "C[C@]12C=CC(=O)C=C1CC[C@H]1[C@@H]3C[C@H]4OC(c5cnc(CSC6CCOC6=O)nc5)O[C@@]4(C(=O)CO)[C@@]3(C)C[C@H](O)[C@@]12Cl", "note": "(stereo partly drawn) [Compound 54, (6aS,6bR,7S,8aS,8bS,11aR,12aS,12bS)-6b-Chloro-7-hydroxy-8b-(2-hydroxyacetyl)-6a,8a-dimethyl-10-(2-(((2-oxotetrahydrofuran-3-yl)thio)methyl)pyrimidin-5-yl)-1,2,6a,6b,7,8,8a,8b,11a,12,12a, 12b-dodecahydro-4H-naphtho[2',1':4,5]indeno[1,2-d][1,3]dioxol-4-one]", "EC50": 5.64}
{"smiles": "C[C@]12C=CC(=O)C=C1CC[C@H]1[C@@H]3C[C@H]4OC(c5ccc(CNC6COC(=O)C6)cc5)O[C@@]4(C(=O)CO)[C@@]3(C)C[C@H](O)[C@@]12Cl", "note": "(stereo partly drawn) [Compound 27, (6aS,6bR,7S,8aS,8bS,11aR,12aS,12bS)-6b-Chloro-7-hydroxy-8b-(2-hydroxyacetyl)-6a,8a-dimethyl-10-(4-(((5-oxotetrahydrofuran-3-yl)amino)methyl)phenyl)-1,2,6a,6b,7,8,8a,8b,11a,12,12a,12b-dodecahydro-4H-naphtho[2',1':4,5]indeno[1,2-d][1,3]dioxol-4-one]", "EC50": 1.82}
{"smiles": "C[C@]12C=CC(=O)C=C1[C@@H](F)C[C@H]1[C@@H]3C[C@H]4OC(C5CCN(C(=O)C6COC(=O)C6)CC5)O[C@@]4(C(=O)CO)[C@@]3(C)C[C@H](O)[C@@]12F", "note": "(stereo partly drawn) [Compound 1, (2S,6aS,6bR,7S,8aS,8bS,11aR,12aS,12bS)-2,6b-Difluoro-7-hydroxy-8b-(2-hydroxyacetyl)-6a,8a-dimethyl-10-(1-(5-oxotetrahydrofuran-3-carbonyl)piperidin-4-yl)-1,2,6a,6b,7,8,8a,8b,11a,12,12a,1 2b-dodecahydro-4H-naphtho[2',1':4,5]indeno[1,2-d][1,3]dioxol-4-one]", "EC50": 20.3}
{"smiles": "C[C@]12C=CC(=O)C=C1CC[C@H]1[C@@H]3C[C@H]4OC(C5CCN(CC6CCOC6=O)CC5)O[C@@]4(C(=O)CO)[C@@]3(C)C[C@H](O)[C@@]12F", "note": "(stereo partly drawn) [Compound 44, (6aS,6bR,7S,8aS,8bS,11aR,12aS,12bS)-6b-Fluoro-7-hydroxy-8b-(2-hydroxyacetyl)-6a,8a-dimethyl-10-(1-((2-oxotetrahydrofuran-3-yl)methyl)piperidin-4-yl)-1,2,6a,6b,7,8,8a,8b,11a,12,12a,12b-d odecahydro-4H-naphtho[2',1':4,5]indeno[1,2-d][1,3]dioxol-4-one]", "EC50": 15.1}
{"smiles": "C[C@]12C=CC(=O)C=C1[C@@H](F)C[C@H]1[C@@H]3C[C@H]4OC(C5CCC(NC(=O)C6COC(=O)C6)CC5)O[C@@]4(C(=O)SCF)[C@@]3(C)C[C@H](O)[C@@]12F", "note": "(stereo partly drawn) [Compound 6, S-(Fluoromethyl) (2S,6aS,6bR,7S,8aS,8bS,11aR,12aS,12bS)-2,6b-difluoro-7-hydroxy-6a,8a-dimethyl-4-oxo-10-(4-(5-oxotetrahydrofuran-3-carboxamido)cyclohexyl)-1,2,4,6a,6b,7,8,8a,11a,12,12a,12b-dodecahydro-8bH-naphtho[2',1':4,5]indeno[1,2-d][1,3]dioxole-8b-carbothioate]", "EC50": 8.69}
{"smiles": "C[C@]12C=CC(=O)C=C1CC[C@@H]1[C@@H]2[C@@H](O)C[C@@]2(C)[C@H]1C[C@H]1OC(c3ccc(CNC4CCOC4=O)cc3)O[C@]12C(=O)CO", "note": "(stereo partly drawn) [Compound 30, (6aR,6bS, 7S,8aS,8bS,11aR,12aS,12bS)-7-Hydroxy-8b-(2-hydroxyacetyl)-6a,8a-dimethyl-10-(4-(( (2-oxotetrahydrofuran-3-yl)amino)methyl)phenyl)-1,2,6a,6b,7,8,8a,8b,11a,12,12a,12b-dodecahydr o-4H-naphtho[2',1':4,5]indeno[1,2-d][1,3]dioxol-4-one]", "EC50": 7.2}
{"smiles": "C[C@]12C=CC(=O)C=C1CC[C@@H]1[C@@H]2[C@@H](O)C[C@@]2(C)[C@H]1C[C@H]1OC(c3ccc(CSC4CCOC4=O)cc3)O[C@]12C(=O)CO", "note": "(stereo partly drawn) [Compound 29, (6aR,6bS, 7S,8aS,8bS,11aR,12aS,12bS)-7-Hydroxy-8b-(2-hydroxyacetyl)-6a,8a-dimethyl-10-(4-(( (2-oxotetrahydrofuran-3-yl)thio)methyl)phenyl)-1,2,6a,6b,7,8,8a,8b,11a,12,12a,12b-dodecahydro-4H-naphtho[2',1':4,5]indeno[1,2-d][1,3]dioxol-4-one]", "EC50": 3.66}
{"smiles": "C[C@]12C=CC(=O)C=C1CC[C@H]1[C@@H]3C[C@H]4OC(c5ccc(CS(=O)(=O)C6CCOC6=O)cc5)O[C@@]4(C(=O)CO)[C@@]3(C)C[C@H](O)[C@@]12Cl", "note": "(stereo partly drawn) [Compound 60, (6aS,6bR,7S,8aS,8bS,11aR,12aS,12bS)-6b-Chloro-7-hydroxy-8b-(2-hydroxyacetyl)-6a,8a-dimethyl-10-(4-(((2-oxotetrahydrofuran-3-yl)sulfonyl)methyl)phenyl)-1,2,6a,6b,7,8,8a,8b,11a,12,12a,12b-dodecahydro-4H-naphtho[2',1':4,5]indeno[1,2-d][1,3]dioxol-4-one]", "EC50": 3.5}
